{"source": "patent US20050287666A1", "about": "“Cell culture medium comprising transition metals or trace elements” (priority 2004, published 2005)", "format_in_all_cases": "cell-based, human", "key": {"[1]": {"tested_on": "PER.C6 cells", "assay": "PER.C6 cell growth after adding cobalt, nickel and manganese to AEM supplemented with TEM-2 (Example 5, FIG. 04)"}, "[2]": {"tested_on": "PER.C6 cells", "assay": "PER.C6 growth in AEM supplemented with TEM, TEM without zinc or zinc alone (Example 1 and preliminary work)", "details": "zinc evaluated separately", "from_the_text": "A trace element mix (TEM) was created and used in various test protocols. […] The following media supplements were compared: • 1) TEM. • 2) TEM without zinc. • 3) Zinc alone at the TEM concentration. • 4) These supplements were each added to individual bottles of AEM at 1×, 3×, 5× and 10×. The conditions were then monitored by observing PER.C6 growth. […] Two of the components in TEM, Cu and Ni would individual be toxic at the 10× levels. These levels of trace elements would have been observed in the preliminary variable observations. Thus it was decided that total trace element concentrations were not responsible for the deleterious effects observed."}, "[3]": {"tested_on": "PER.C6 cells", "assay": "Lag in the subsequent culture when PER.C6 cells are passaged from overgrown high-density cultures in AEM", "details": "for high density culturing / passaging of cells from high-density cultures: PER.C6 cells in AEM, cultures above 2×10^6 vc/mL"}, "[4]": {"tested_on": "PER.C6 cells", "assay": "PER.C6 cell growth in AEM with single trace elements added at low concentration (Example 2, FIG. 01)", "details": "for effect on PER.C6 cell growth: element added singly to AEM: nickel (nitrate) 0.004 mg/L, cobalt (chloride) 0.001 mg/L, manganese (chloride) 0.028 mg/L, copper (chloride) 0.013 mg/L, compared to control"}}, "note": "“Also recorded” adds a separate entry of the source. Where two headings read alike, the source gives them in different places.", "data": [{"smiles": "[Cl][Co][Cl]", "note": "[cobalt, cobalt (chloride)]", "values": [{"measurement": "effect on PER.C6 cell growth performance", "setting": "[1]", "value": "no effect"}]}, {"smiles": "[Zn]", "note": "[Zinc]", "values": [{"measurement": "overall cell growth", "setting": "[2]", "value": "improve overall cell growth"}, {"measurement": "high density culturing / passaging of cells from high-density cultures", "setting": "[3]", "value": "consistent high density culturing"}, {"measurement": "lag in the subsequent culture", "setting": "[3]; passaged from overgrown day 5 cultures, AEM", "value": "did not lag"}]}, {"smiles": "[Cl][Mn][Cl]", "note": "[manganese, manganese (chloride)]", "values": [{"measurement": "effect on PER.C6 cell growth", "setting": "[4]", "value": "inhibits; also recorded: individually toxic"}, {"measurement": "effect on PER.C6 cell growth performance", "setting": "[1]; added to AEM supplemented with TEM-2, same concentrations as in example 2", "value": "no effect"}]}, {"smiles": "[Cl][Cu][Cl]", "note": "[copper, copper (chloride)]", "values": [{"measurement": "duration of log growth phase", "setting": "[4]; 0.013 mg/L copper in AEM, all other cultures entered lag phase after day four or five", "value": "continued in the log growth phase through day six"}, {"measurement": "effect on PER.C6 cell growth", "setting": "[4]", "value": "best results of all conditions tested; also recorded: extends log phase growth"}, {"measurement": "effect on PER.C6 cell growth", "setting": "[4]; listed as Copper", "value": "increase growth"}, {"measurement": "high density culturing / passaging of cells from high-density cultures", "setting": "[3]", "value": "does not improve passaging"}]}]}
